test system: not listed separately; test: Immunogenicity of NeoAgs screened by Deepomics algorithm; conditions: not given

Sequence	immunogenic characteristics of NeoAgs
GVRAALPTPR (SEQ ID NO: 4) (listed as Mus sp.) [MT4-7]	poorly immunogenic
HRAERPFPEED (SEQ ID NO: 1) (listed as Mus sp.) [MT4-1]	poorly immunogenic
LTPSFPVSP (SEQ ID NO: 2) (listed as Mus sp.) [MT4-2]	poorly immunogenic
QAGPVLPTSLE (SEQ ID NO: 5) (listed as Mus sp.) [MT4-8]	poorly immunogenic
RVGGHLRLSGQ (SEQ ID NO: 3) (listed as Mus sp.) [MT4-6]	poorly immunogenic

test system: COVID-19 patient's PBMC; test: not given; conditions: cited from earlier work

Sequence	induction of T cell responses
TRFQTLLALHRSYLT (SEQ ID NO: 10) [Spike S236-250 peptide]	able to induce T cell responses
